Here are results for 16 compounds from ChEMBL document CHEMBL2396574, “Design, synthesis and evaluation of retinoids with novel bulky hydrophobic partial structures” (Bioorg Med Chem, 2013).

Experiment [1] concerns HL-60. The experiment in a line: Induction of human HL60 cell differentiation into myeloid cells at 100 nM after 4 days by NBT reduction assay relative to control. In kind it is functional.
Experiment [2] concerns HL-60. The experiment can be described thus: Induction of human HL60 cell differentiation into myeloid cells at 10 nM after 4 days by NBT reduction assay relative to control. In kind it is functional.
The target in experiment [3] is T1, Retinoic acid receptor RXR-gamma (Homo sapiens) (UniProt P48443).
T1 sequence (whole entry): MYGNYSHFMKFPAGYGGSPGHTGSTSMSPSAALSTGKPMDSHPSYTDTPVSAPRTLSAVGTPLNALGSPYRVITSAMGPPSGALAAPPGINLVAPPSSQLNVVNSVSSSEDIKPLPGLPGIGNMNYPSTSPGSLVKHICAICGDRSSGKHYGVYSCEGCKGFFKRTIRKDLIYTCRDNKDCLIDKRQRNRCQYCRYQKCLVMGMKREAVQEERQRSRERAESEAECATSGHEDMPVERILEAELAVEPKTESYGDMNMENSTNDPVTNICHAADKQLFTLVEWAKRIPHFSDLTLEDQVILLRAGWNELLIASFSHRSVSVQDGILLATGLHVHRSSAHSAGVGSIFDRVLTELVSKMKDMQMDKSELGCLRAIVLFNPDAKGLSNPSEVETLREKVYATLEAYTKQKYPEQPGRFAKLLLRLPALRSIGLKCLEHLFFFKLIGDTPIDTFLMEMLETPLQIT
The experiment can be described thus: Transactivation of full-length RXRgamma (unknown origin) expressed in African green monkey COS1 cells at 1000 nM by luciferase reporter gene assay. In kind it is cell-based. To be noted: COS-1. For orientation: A reporter such as luciferase makes a cellular process visible.

The target in experiment [4] is T2, Retinoic acid receptor RXR-beta (Homo sapiens) (UniProt P28702).
T2 sequence (whole entry): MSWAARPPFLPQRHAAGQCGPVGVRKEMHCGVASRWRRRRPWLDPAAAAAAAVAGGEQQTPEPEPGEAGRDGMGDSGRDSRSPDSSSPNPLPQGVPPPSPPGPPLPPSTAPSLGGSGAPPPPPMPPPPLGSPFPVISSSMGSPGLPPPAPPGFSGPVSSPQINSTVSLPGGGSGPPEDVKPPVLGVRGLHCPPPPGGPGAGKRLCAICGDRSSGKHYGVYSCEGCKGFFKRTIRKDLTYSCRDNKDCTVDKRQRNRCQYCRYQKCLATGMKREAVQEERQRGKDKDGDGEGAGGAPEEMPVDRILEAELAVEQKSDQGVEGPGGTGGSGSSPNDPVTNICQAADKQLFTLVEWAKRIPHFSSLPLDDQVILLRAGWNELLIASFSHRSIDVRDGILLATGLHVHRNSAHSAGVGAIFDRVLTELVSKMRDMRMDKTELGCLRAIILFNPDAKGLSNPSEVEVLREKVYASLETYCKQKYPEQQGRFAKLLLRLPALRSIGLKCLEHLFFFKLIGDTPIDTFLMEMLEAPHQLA
The experiment in a line: Transactivation of full-length RXRbeta (unknown origin) expressed in African green monkey COS1 cells at 1000 nM by luciferase reporter gene assay. To be noted: COS-1. The experiment is classed as cell-based.

Experiment [5] has as its target T3, Retinoic acid receptor gamma (Homo sapiens) (UniProt P13631).
T3 sequence (whole entry): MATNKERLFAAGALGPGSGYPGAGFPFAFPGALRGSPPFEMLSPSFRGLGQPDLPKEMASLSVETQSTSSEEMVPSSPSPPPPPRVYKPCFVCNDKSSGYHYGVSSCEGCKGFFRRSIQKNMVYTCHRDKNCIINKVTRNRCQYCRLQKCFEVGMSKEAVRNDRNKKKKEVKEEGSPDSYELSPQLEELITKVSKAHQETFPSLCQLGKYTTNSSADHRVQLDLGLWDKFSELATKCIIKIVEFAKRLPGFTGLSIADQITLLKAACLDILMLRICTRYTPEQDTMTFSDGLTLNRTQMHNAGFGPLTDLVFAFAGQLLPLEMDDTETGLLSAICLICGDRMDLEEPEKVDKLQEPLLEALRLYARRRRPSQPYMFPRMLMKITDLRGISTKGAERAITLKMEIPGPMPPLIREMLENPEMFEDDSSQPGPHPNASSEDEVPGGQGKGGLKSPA
The experiment in a line: Transactivation of Gal4-fused RARgamma (unknown origin) expressed in African green monkey COS1 cells at 100 nM by luciferase reporter gene assay relative to DMSO-treated control. The experiment is classed as cell-based. As to conditions: COS-1.

The target in experiment [6] is T4, Retinoic acid receptor beta (Homo sapiens) (UniProt P10826).
T4 sequence (whole entry): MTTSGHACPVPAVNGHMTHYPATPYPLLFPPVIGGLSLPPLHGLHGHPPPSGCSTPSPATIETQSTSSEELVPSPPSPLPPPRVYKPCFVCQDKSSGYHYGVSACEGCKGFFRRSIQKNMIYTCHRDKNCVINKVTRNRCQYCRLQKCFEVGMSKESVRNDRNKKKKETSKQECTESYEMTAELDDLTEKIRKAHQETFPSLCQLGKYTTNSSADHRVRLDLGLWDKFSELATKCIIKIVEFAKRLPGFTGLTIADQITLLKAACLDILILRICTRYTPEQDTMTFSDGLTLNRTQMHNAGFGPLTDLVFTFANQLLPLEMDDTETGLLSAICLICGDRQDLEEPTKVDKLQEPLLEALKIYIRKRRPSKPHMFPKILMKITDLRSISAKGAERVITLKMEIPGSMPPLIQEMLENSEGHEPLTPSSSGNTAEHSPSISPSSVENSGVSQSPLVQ
The experiment can be described thus: Transactivation of Gal4-fused RARbeta (unknown origin) expressed in African green monkey COS1 cells at 100 nM by luciferase reporter gene assay relative to DMSO-treated control. To be noted: COS-1. The experiment is classed as cell-based.

Active and inactive are the calls of the source. No cut-off for these calls is given here.

Regarding `O=C(O)c1ccc(NC(=O)c2cc3c4c(c2)CCCCC4CCCC3)cc1`, the Activity in experiment [1] amounted to 40%; in experiment [2], 34%. The outcome in experiment [3] and in experiment [4] was inactive. Also, the results for the fold change (FC) in experiment [5] and in experiment [6] were 10 and 27, respectively.
Consider `CC1(C)CCC(C)(C)c2cc(NC(=O)c3ccc(C(=O)O)cc3)ccc21` [TAMIBAROTENE], for which the Activity worked out at 68% in experiment [1] and 60% in experiment [2]. Also, the outcome in experiment [3] and in experiment [4] was inactive.
In the case of `O=C(Nc1ccc(C(=O)O)s1)c1cc2c3c(c1)CCCC3CCC2`, the outcome in experiment [3] and in experiment [4] was inactive. This compound also registered a fold change (FC) in experiment [5] of 1.
Turning to `O=C(O)c1ccc(C(=O)Nc2cc3c4c(c2)CCCCC4CCCC3)nc1`, the result in experiment [3] and in experiment [4] was inactive. Further, the fold change (FC) amounted to 2 in experiment [5] and 17 in experiment [6].
In the case of `CC12CCCc3cc(NC(=O)c4ccc(C(=O)O)nc4)cc(c31)CCC2`, the result in experiment [3] and in experiment [4] was inactive. The fold change (FC) in experiment [5] came out at 1.
In the case of `CC12CCCc3cc(C(=O)Nc4ccc(C(=O)O)cc4)cc(c31)CCC2`, the Activity in experiment [2] came to 36%. Besides, the result in experiment [3] and in experiment [4] was inactive. The fold change (FC) in experiment [5] came to 4; in experiment [6], 20.
On to `CC12CCCc3cc(NC(=O)c4ccc(C(=O)O)s4)cc(c31)CCC2`, for which the result in experiment [3] and in experiment [4] was inactive. The fold change (FC) in experiment [5] came to 1.
On to `CC12CCCc3cc(C(=O)Nc4ccc(C(=O)O)nc4)cc(c31)CCC2`, for which the outcome in experiment [3] and in experiment [4] was inactive. Besides, the fold change (FC) in experiment [5] worked out at 1.
In experiment [2], `CC12CCCc3cc(NC(=O)c4ccc(C(=O)O)cc4)cc(c31)CCC2` gave an Activity of 12%. Moreover, the outcome in experiment [3] and in experiment [4] was inactive. The fold change (FC) in experiment [5] is 1; in experiment [6] it was 12.
In the case of `COc1cc(NC(=O)c2cc3c4c(c2)CCCCC4CCCC3)ccc1C(=O)O`, the result in experiment [3] and in experiment [4] was inactive. Besides, the fold change (FC) in experiment [5] came to 2; in experiment [6] it was 1.
Turning to `CC1=C(/C=C/C(C)=C/C=C/C(C)=C/C(=O)O)C(C)(C)CCC1` [TRETINOIN], the Activity in experiment [1] is 71%; in experiment [2], 46%. Also, the result in experiment [3] and in experiment [4] was inactive.
Regarding `O=C(Nc1cc2c3c(c1)CCCC3CCC2)c1ccc(C(=O)O)nc1`, the outcome in experiment [3] and in experiment [4] was inactive. The compound also yielded a fold change (FC) in experiment [5] of 1.
With `CC12CCCc3cc(C(=O)Nc4ccc(C(=O)O)s4)cc(c31)CCC2`, the outcome in experiment [3] and in experiment [4] was inactive. For the same compound, the fold change (FC) in experiment [5] and in experiment [6] was 1 each time.
With `O=C(O)c1ccc(C(=O)Nc2cc3c4c(c2)CCCC4CCC3)s1`, the result in experiment [3] and in experiment [4] was inactive. The compound further showed a fold change (FC) in experiment [5] of 1.
Turning to `O=C(O)c1ccc(NC(=O)c2cc3c4c(c2)CCCCC4CCCC3)nc1`, the outcome in experiment [3] and in experiment [4] was inactive. The fold change (FC) in experiment [5] came to 56; in experiment [6], 45.
In the case of `O=C(Nc1ccc(C(=O)O)nc1)c1cc2c3c(c1)CCCC3CCC2`, the outcome in experiment [3] and in experiment [4] was inactive. The compound also yielded a fold change (FC) in experiment [5] of 1.
